Measurements from patent publication US8945518B2, “Formulation of dual eicosanoid system and cytokine system inhibitors for use in the prevention and treatment of oral diseases and conditions” (Unigen, Inc., priority 2002, dated 2015).

Legend:
[1] = test system: newly synthesized LTB4 (5-LOX pathway) in HT-29 cells; assay: LTB4 competitive ELISA in HT-29 cells; type: cell-based; details: Homo sapiens, 3 μg/mL, 48 hrs
Description: A competitive ELISA for Leukotriene B4 (LTB4; Neogen, Inc., Cat#406110) was used to assess the effect of this UP676 formulation on newly synthesized levels of LTB4 present in each cell line as a measure UP676's inhibitory effect on the 5-LOX pathway. The assay was performed in duplicate by adding 160,000 to 180,000 cells per well in 6-well plates. […] Each treated cell line was then harvested by centrifugation and disrupted by gentle dounce homogenization lysis in physiological buffers.

recombinant ovine COX-1 = target: T1, recombinant ovine COX-1 (Ovis aries, UniProt P05979); assay: COX-1 peroxidase activity inhibition (TMPD, 96-well); type: biochemical
T1 sequence (P05979 25-600): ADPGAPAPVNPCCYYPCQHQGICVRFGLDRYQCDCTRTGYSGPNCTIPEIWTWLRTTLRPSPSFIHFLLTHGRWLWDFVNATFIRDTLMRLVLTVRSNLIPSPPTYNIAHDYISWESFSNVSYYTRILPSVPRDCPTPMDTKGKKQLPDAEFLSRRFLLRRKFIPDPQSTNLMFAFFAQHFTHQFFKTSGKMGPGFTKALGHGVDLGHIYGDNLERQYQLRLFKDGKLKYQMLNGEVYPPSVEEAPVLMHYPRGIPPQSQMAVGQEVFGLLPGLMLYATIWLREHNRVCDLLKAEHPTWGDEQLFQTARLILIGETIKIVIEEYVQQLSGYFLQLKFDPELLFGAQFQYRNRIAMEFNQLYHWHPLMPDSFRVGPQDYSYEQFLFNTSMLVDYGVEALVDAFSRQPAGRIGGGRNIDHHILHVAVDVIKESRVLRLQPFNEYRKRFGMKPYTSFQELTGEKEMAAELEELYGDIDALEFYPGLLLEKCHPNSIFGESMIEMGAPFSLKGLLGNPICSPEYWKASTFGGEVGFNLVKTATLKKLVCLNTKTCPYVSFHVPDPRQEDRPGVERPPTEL
Source text: (§1) In order to screen for compounds that inhibited the COX-1 and COX-2 activities, a high throughput, in vitro assay was developed that utilized the inhibition of the peroxidase activity of both enzymes. […] Briefly, the composition or compound being examined was titrated against a fixed amount of COX-1 and COX-2 enzymes. A cleavable, peroxide chromophore was included in the assay to visualize the peroxidase activity of each enzyme in presence of arachidonic acid as a cofactor. Typically, assays were performed in a 96-well format. Each inhibitor, taken from a 10 mg/mL stock solution in 100% DMSO, was tested in triplicate at room temperature using the following range of concentrations: 0, 0.1, 1, 5, 10, 20, 50, 100, and 500 μg/mL. […] The components were mixed for 10 seconds on a rotating platform, followed by the addition of 20 μL of 2 mM N,N,N′N′-tetramethyl-p-phenylenediamine dihydrochloride (TMPD) and 20 μL of 1.1 mM arachidonic acid to initiate the reaction. The plate was shaken for 10 seconds and then incubated 5 minutes before reading the absorbance at 570 nm. The inhibitor concentration vs. % inhibition was plotted and the IC50 determined by taking the half-maximal point along the isotherm and intersecting the concentration on the X-axis. The IC50 was then normalized to the number of enzyme units in the assay.

recombinant ovine COX-2 = target: T2, recombinant ovine COX-2 (Ovis aries, UniProt P79208); assay: COX-2 peroxidase activity inhibition (TMPD, 96-well); type: biochemical; details: IC50 normalized to enzyme units
T2 sequence (P79208 17-603): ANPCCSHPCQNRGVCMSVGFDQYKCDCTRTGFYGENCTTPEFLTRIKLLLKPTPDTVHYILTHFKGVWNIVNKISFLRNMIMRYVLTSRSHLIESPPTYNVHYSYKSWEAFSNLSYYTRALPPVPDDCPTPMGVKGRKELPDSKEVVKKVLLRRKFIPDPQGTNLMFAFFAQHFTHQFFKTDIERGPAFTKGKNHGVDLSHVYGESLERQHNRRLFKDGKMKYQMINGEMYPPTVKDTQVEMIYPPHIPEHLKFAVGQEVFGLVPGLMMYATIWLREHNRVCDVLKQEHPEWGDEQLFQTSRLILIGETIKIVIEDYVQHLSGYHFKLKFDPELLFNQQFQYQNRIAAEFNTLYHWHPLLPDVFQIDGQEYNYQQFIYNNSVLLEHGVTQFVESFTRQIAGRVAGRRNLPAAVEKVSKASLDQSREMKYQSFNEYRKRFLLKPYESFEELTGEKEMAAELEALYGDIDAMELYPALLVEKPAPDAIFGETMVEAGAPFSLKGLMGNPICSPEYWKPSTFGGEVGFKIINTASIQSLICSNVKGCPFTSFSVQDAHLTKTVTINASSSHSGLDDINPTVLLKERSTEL
Source text: as §1

[2] = Stability of catechin in solution; type: physicochemical
Description: A total of 6 different conditions (not including control solution) were chosen for this stability investigation at 45° C. Aqueous K2HPO4 (0.5 M) or KH2PO4 (0.5 M) was utilized to make buffered solutions at pH 5 or 8, respectively. […] All seven solutions were stored in sealed bottles at 45° C.
All eight solutions were stored in sealed bottles at 45° C.

[3] = Oxygen Radical Absorption Capacity (ORAC)
[4] = test system: prostaglandin endoperoxide synthase; details: Kalkbrenner et al. (1992); cited from earlier work
[5] = test system: cox-2 gene transcription in human colon cancer DLD-1 cells; details: Mutoh et al. (2000), read-out: IC50, suppression of cox-2 gene transcription; cited from earlier work
[6] = literature studies of bioavailability; cited from earlier work
COX-1 and COX-2 enzymes = details: cited from earlier work

For CC(C)Cc1ccc(C(C)C(=O)O)cc1 (stereo not drawn) [Ibuprofen, ibuprofen], the inhibition at 3 µg/mL [1] was 20%.

With O=C(O)[C@H]1O[C@@H](Oc2cc3oc(-c4ccccc4)cc(=O)c3c(O)c2O)[C@H](O)[C@@H](O)[C@@H]1O [Baicalin] the “IC50 for COX-1” value (recombinant ovine COX-1; peroxidase activity, IC50 normalized to enzyme units) was 0.44 μg/mL/unit of enzyme and the “IC50 for COX-2” value (recombinant ovine COX-2) was 0.28 μg/mL/unit.

With Oc1cc(O)c2c(c1)OC(c1ccc(O)c(O)c1)C(O)C2 (stereo not drawn) [Catechin] the “selectivity against the COX-1 enzyme” value (recombinant ovine COX-1; catechin in the UP676 formulation, COX-1 over COX-2) was 2.3 fold, the “stability of catechin in solution, basic conditions or metal ions” value ([2]; basic conditions or metal ions such as Fe3+) was “not under basic conditions or when exposed to metal ions” and the “stability of catechin in solution, neutral conditions” value ([2]; neutral conditions, 4° C. and 40° C.) was “stable”. For the same molecule, the “stability of catechin in solution, weakly basic” value ([2]; pH=7.5) was “decomposes”, the “Oxygen Radical Absorption Capacity (ORAC)” value [3] was 20,000 and the IC50 [4] was 40 µM. For the same molecule, the IC50 [5] was 415 µM and the half life [6] was 2 h.

For CC(=O)Oc1ccccc1C(=O)O [aspirin], the “times more potent against COX-1 than COX-2” value (COX-1 and COX-2 enzymes) is listed as “more than 150 times”.
